Drawing on patent US8124744B2, “Macrolide derivatives” (Taisho Pharmaceutical Co., Ltd., priority 2006, dated 2012), this text covers IC50 and MIC for 13 compounds.

One assay has as its system MMP-9 production. To be noted: background art, Non-Patent Document 3; read-out: 50% inhibitory concentration (IC50) value, MMP-9 production; cited from earlier work.
The test system of assay [1] is Staphylococcus aureus ATCC29213. Kind of assay: Minimal inhibitory concentration (MIC). Format: cell-based. A digest of the protocol: (§1)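 Peritoneal exudate cells came from male C57BL/6J mice 3 days after i.p. zymosan A; cultured cells got compound (0.02–20 μM final) 1 h before TNFα (25 ng/ml) and supernatant pro MMP-9 was measured by ELISA after 24 h for IC50 against the TNFα-induced increase. MIC was measured against S. aureus ATCC29213.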

The subject of a further assay is pro MMP-9 protein. Kind of assay: Inhibitory activity against proMMP-9 protein production (TNF α-stimulated mouse peritoneal exudate cells, ELISA). Format: cell-based, C57BL/6J mice. To be noted: relative activity when the value of Comparative Agent 1 (IC50 = 10.04 ± 4.11 μM) is 10, on the increase of pro MMP-9 by TNF α 25 ng/ml, 24 hours, read-out: IC50 (μM)*. The gist of the method:
as §1

`CC[C@H]1OC(=O)[C@H](C)[C@@H](O[C@H]2C[C@@](C)(OC)[C@@H](O)[C@H](C)O2)[C@H](C)[C@@H](O[C@@H]2O[C@H](C)C[C@H](N(C)C)[C@H]2O)[C@](C)(O)C[C@@H](C)/C(=N\OCOCCOC)[C@H](C)[C@@H](O)[C@]1(C)O` [roxithromycin]: the IC50 with MMP-9 production is at least 10000 nM.
For `CC[C@H]1OC(=O)[C@H](C)[C@@H](O[C@H]2C[C@@](C)(OC)[C@@H](O)[C@H](C)O2)[C@H](C)[C@@H](O[C@@H]2O[C@H](C)C[C@@H](N3CCOCC3)[C@@H]2N(C)C)[C@@](C)(OC)C[C@@H](C)C(=O)[C@H](C)[C@@H](O)[C@]1(C)O` [Example 178, 3′-dedimethylamino-2′-deoxy-2′-dimethylamino-3′-(4-morpholino)-6-O-methylerythromycin A], the MIC (in general, the smallest concentration in the dilution series that meets the test's criterion for growth inhibition) in assay [1] was above 128 µg/mL. For the same compound, in the assay on pro MMP-9 protein, the IC50 is 3.1 µM.
The compound `CC[C@H]1OC(=O)[C@H](C)C(=O)[C@H](C)[C@@H](O[C@@H]2O[C@H](C)C[C@H](N(C)C)[C@H]2OC)[C@@](C)(OC)C[C@@H](C)C(=O)[C@H](C)[C@@H](O)[C@]1(C)O` [Example 155, 3-deoxy-3-oxo-5-O-(2′-O-methyldesosaminyl)-6-O-methylerythronolide A] registered an MIC in assay [1] above 128 µg/mL. Moreover, in the assay on pro MMP-9 protein, the IC50 was 9.7 µM.
As for `CC[C@H]1OC(=O)[C@H](C)[C@@H](O[C@H]2C[C@@](C)(OC)[C@@H](O)[C@H](C)O2)[C@H](C)[C@@H](O[C@@H]2O[C@H](C)C[C@@H](N3CCCCC3)[C@@H]2N(C)C)[C@@](C)(OC)C[C@@H](C)C(=O)[C@H](C)[C@@H](O)[C@]1(C)O` [Example 101, 3′-dedimethylamino-2′-deoxy-2′-dimethylamino-3′-(1-piperidino)-6-O-methylerythromycin A], in assay [1], the minimal inhibitory concentration (MIC) was above 128 µg/mL. Moreover, in the assay with pro MMP-9 protein, the IC50 stood at 0.62 µM.
Turning to `CC[C@H]1OC(=O)[C@H](C)[C@@H](O[C@H]2C[C@@](C)(OC)[C@@H](O)[C@H](C)O2)[C@H](C)[C@@H](O[C@@H]2O[C@H](C)C[C@H](N(C)CCCN(C)C)[C@H]2OC)[C@@](C)(OC)C[C@@H](C)C(=O)[C@H](C)[C@@H](O)[C@]1(C)O` [Example 130, 3′-N-demethyl-3′-N-(3-dimethylaminopropyl)-6,2′-di-O-methylerythromycin A], the MIC in assay [1] was above 128 µg/mL. In addition, in the assay with pro MMP-9 protein, the IC50 stood at 1.33 µM.
In assay [1], `CC[C@H]1OC(=O)[C@H](C)[C@@H](O[C@H]2C[C@@](C)(OC)[C@@H](O)[C@H](C)O2)[C@H](C)[C@@H](O[C@@H]2O[C@H](C)C[C@@H](N(C)Cc3ccccn3)[C@@H]2N(C)C)[C@@](C)(OC)C[C@@H](C)C(=O)[C@H](C)[C@@H](O)[C@]1(C)O` [Example 192, 3′-N-demethyl-2′-deoxy-2′-dimethylamino-3′-N-(2-pyridylmethyl)-6-O-methylerythromycin A] displayed an MIC above 128 µg/mL. In the assay on pro MMP-9 protein, the IC50 is 2.46 µM.
`CC[C@H]1OC(=O)[C@H](C)[C@@H](OC(C)=O)[C@H](C)[C@@H](O[C@@H]2O[C@H](C)C[C@@H](N3CCOCC3)[C@@H]2N(C)C)[C@@](C)(OC)C[C@@H](C)C(=O)[C@H](C)[C@@H](O)[C@]1(C)O` [Example 203, 3-O-acetyl-5-O— (3′-dedimethylamino-2′-deoxy-2′-dimethylamino-3′-(4-morpholino)desosaminyl)-6-O-methylerythronolide A] showed a minimal inhibitory concentration (MIC) in assay [1] above 128 µg/mL. For the same compound, the IC50 in the assay on pro MMP-9 protein worked out at 5.03 µM.
Regarding `CC[C@H]1OC(=O)[C@H](C)[C@@H](O[C@H]2C[C@@](C)(OC)[C@@H](OC(C)=O)[C@H](C)O2)[C@H](C)[C@@H](O[C@@H]2O[C@H](C)C[C@H](N(C)CCN(C)C)[C@H]2O)[C@@](C)(OC)C[C@@H](C)C(=O)[C@H](C)[C@@H](O)[C@]1(C)O` [Example 214, 4″-O-acetyl-3′-N-demethyl-3′-N-(2-dimethylaminoethyl)-6-methylerythromycin A], the MIC in assay [1] is above 128 µg/mL. The IC50 with pro MMP-9 protein came out at 2.73 µM.
In the case of `CC[C@H]1OC(=O)[C@H](C)[C@@H](O[C@H]2C[C@@](C)(OC)[C@@H](O)[C@H](C)O2)[C@H](C)[C@@H](O[C@@H]2O[C@H](C)C[C@H](N(C)CCCOCc3ccccc3)[C@H]2OC)[C@@](C)(OC)C[C@@H](C)C(=O)[C@H](C)[C@@H](O)[C@]1(C)O` [Example 129, 3′-N-demethyl-3′-N-(3-benzyloxypropyl)-6,2′-di-O-methylerythromycin A], in assay [1], the MIC was above 128 µg/mL. Besides, in the assay on pro MMP-9 protein, the IC50 was below 1.04 µM.
On to `CC[C@H]1OC(=O)[C@H](C)[C@@H](O[C@H]2C[C@@](C)(OC)[C@@H](O)[C@H](C)O2)[C@H](C)[C@@H](O[C@@H]2O[C@H](C)C[C@@H](N(C)CCCO)[C@@H]2N(C)C)[C@@](C)(OC)C[C@@H](C)C(=O)[C@H](C)[C@@H](O)[C@]1(C)O` [Example 199, 3′-N-demethyl-2′-deoxy-2′-dimethylamino-3′-N-(3-hydroxypropyl)-6-O-methylerythromycin A], for which the MIC in assay [1] is above 128 µg/mL. In the assay with pro MMP-9 protein, the IC50 was 3.6 µM.
The compound `CC[C@H]1OC(=O)[C@H](C)[C@@H](O[C@H]2C[C@@](C)(OC)[C@@H](O)[C@H](C)O2)[C@H](C)[C@@H](O[C@@H]2O[C@H](C)C[C@H](N(C)C)[C@H]2OC)[C@@](C)(OC)C[C@@H](C)[C@H](O)[C@H](C)[C@@H](O)[C@]1(C)O` [Example 141, 9-deoxo-9-(S)-hydroxy-6,2′-di-O-methylerythromycin A] returned an MIC in assay [1] above 128 µg/mL. Besides, in the assay on pro MMP-9 protein, the IC50 worked out at 2.18 µM.
For the compound `CC[C@H]1OC(=O)[C@H](C)[C@@H](O[C@H]2C[C@@](C)(OC)[C@@H](OC(C)=O)[C@H](C)O2)[C@H](C)[C@@H](O[C@@H]2O[C@H](C)C[C@H](N(C)C)[C@H]2OCCCN2CCC(O)CC2)[C@@](C)(OC)C[C@@H](C)C(=O)[C@H](C)[C@@H](O)[C@]1(C)O` [Example 122, 4″-O-acetyl-2′-O-(3-(4-hydropiperidin-1-yl)propyl)-6-O-methylerythromycin A], the minimum inhibitory concentration (MIC) in assay [1] is above 128 µg/mL. Besides, in the assay on pro MMP-9 protein, the IC50 came to 3.06 µM.
In assay [1], `CC[C@H]1OC(=O)[C@H](C)C(=O)[C@H](C)[C@@H](O[C@@H]2O[C@H](C)C[C@@H](N3CCOCC3)[C@@H]2N(C)C)[C@@](C)(OC)C[C@@H](C)C(=O)[C@H](C)[C@H]2N(CCCCn3cnc(-c4cccnc4)c3)C(=O)O[C@]12C` [Example 211, 3,11-dideoxy-5-O-(3′-dedimethylamino-2′-deoxy-2′-dimethylamino-3′-(4-morpholino)desosaminyl)-11-{4-[4-(pyridin-3-yl)-1H-imidazol-1-yl]butyl}-amino-3-oxo-6-O-methylerythronolide A 11,12-cyclic carbamate] registered an MIC above 128 µg/mL. Moreover, in the assay on pro MMP-9 protein, the IC50 is 2.58 µM.
